Results taken from patent EP3741762A1, “OXALAMIDO-SUBSTITUTED TRICYCLIC INHIBITORS OF HEPATITIS B VIRUS” (priority 2019, dated 2020).

test system: HBV; assay: Anti-HBV activity in vitro: quantification of extracellular HBV DNA by direct qPCR in HepAD38 cells; format: cell-based; details: Hepatitis B virus, tetracycline-free medium, 96 hours at 37°C, reported as EC50 threshold value, read-out: HBV inh EC50
Description: HepAD38 cell line (Ladner et al., Antimicrob Agents Chemother, 1997, 41, 1715-20) was used for HBV inhibition assays. HepAD38 is a subclone, derived from Hepatoblastoma cell line HepG2 (ATCC® Number: HB-8065™), that expresses HBV genome under the transcriptional control of a tetracycline-responsive promoter in a TET-OFF system: addition of tetracycline (TET) or doxycycline suppresses HBV replication, while its removal switches on the process allowing HBV viral particles release in the cell supernatant. HepAD38 cell line is maintained in DMEM/F12, supplemented with 10% of fetal bovine serum, 1% of glutamine, 1% of penicillin/streptomycin, 0.4 mg/ml G418 and 0,3 ug/ml tetracycline. For the HBV inhibition assay, doxycycline-free medium is used in order to allow virion production.
HBV inhibition activity in vitro was performed in 96 multiwell plates. During the initial (primary) screening, compounds were first tested in triplicates at concentrations of 0.02 µM, 0.1 µM, 0.5µM and 1µM. For selected compounds, an 8-point dose-response curve was obtained using 1:2 serial dilutions (starting from 0.01µM, 0.1µM, 0.4µM or 5 µM, depending on the degree of inhibition observed during the primary screening). From the dose-response curves, half maximal effective concentration (EC50) could be calculated (see also below).
In more detail, compounds - typically dissolved in DMSO stock solutions - were diluted to 2x the final desired concentration in 100 µl of the above medium (without doxycycline) and plated in three replicates in the 96-well plates.
Simultaneously, HepAD38 cells - extensively pre-washed in tetracycline-free medium in order to induce HBV production - were suspended at 2^∗10^4 cells in 100 µl of tetracycline-free medium and added to each well of the plate, to yield a final assay volume of 200 µl DMSO - used for stock solutions and compounds dilutions - which was always present in the assays at a final concentration of 0.5%.
Plates were then incubated 96 hours at 37°C and then subjected to cell viability assays and extracellular HBV quantification, in order to evaluate both the cytotoxic potential and the antiviral activity of compounds. Cytotoxicity was assessed by a commercial fluorescence assay that measures the metabolic activity of cells, directly related to cell viability (Cell Titer Blue, Promega). Anti-HBV activity was evaluated by quantification of extracellular HBV DNA with direct qPCR. In particular, supernatant was collected and centrifuged for cell debris clarification, viral DNA was extracted from virions by addition of lysis buffer (1 mM 1,4-dithiothreitol, 0.2% sodium dodecyl sulphate) and incubated at 95°C for 10 min. Samples were then diluted 1:40 and real time PCR amplification was performed with SYBR green assay (Power SYBR™ Green PCR Master Mix-Thermo Fisher Scientific) and specific HBV primer (HBV-DF:5'-[…]-3' (SEQ ID No. 1), HBV-DR:5'-[…]-3' (SEQ ID No.2)).
Antiviral activity data for each compound are reported as EC50 threshold value (see Table 1 legend). Excel and Graphpad Prism programs are typically used for data elaboration and EC50 calculation.

`CNC(=O)C(=O)N1C[C@H]2CSc3c(cn(C)c3C(=O)Nc3ccc(F)c(C)c3)S(=O)(=O)N[C@H]2C1` [Example E35, (3aR,10aR)-N-(4-fluoro-3-methylphenyl)-7-methyl-2-(2-(methylamino)-2-oxoacetyl)-2,3,3a,4,10,10a-hexahydro-1H,7H-dipyrrolo[3,4-c:3',4'-g][1,6,2]dithiazocine-8-carboxamide 5,5-dioxide] was tested. Which EC50 did it give?
Its EC50 is under 500 nM.

For `Cc1cc(NC(=O)c2c3c(cn2C)S(=O)(=O)N[C@H]2CN(C(=O)C(=O)N4CC(F)(F)C4)C[C@H]2CS3)ccc1F` [Example E36, (3aR,10aR)-2-(2-(3,3-difluoroazetidin-1-yl)-2-oxoacetyl)-N-(4-fluoro-3-methylphenyl)-7-methyl-2,3,3a,4,10,10a-hexahydro-1H,7H-dipyrrolo[3,4-c:3',4'-g][1,6,2]dithiazocine-8-carboxamide 5,5-dioxide], which EC50 is on record?
Its EC50 is under 500 nM.

With `Cc1cc(NC(=O)c2c3c(cn2C)S(=O)(=O)N[C@H]2CN(C(=O)C(=O)N[C@@H](C)C(F)(F)F)C[C@H]2CS3)ccc1F` [Example E37, (3aR,10aR)-N-(4-fluoro-3-methylphenyl)-7-methyl-2-(2-oxo-2-(((S)-1,1,1-trifluoropropan-2-yl)amino)acetyl)-2,3,3a,4,10,10a-hexahydro-1H,7H-dipyrrolo[3,4-c:3',4'-g][1,6,2]dithiazocine-8-carboxamide 5,5-dioxide] as the molecule, how does the EC50 read?
Its EC50 is under 500 nM.

How did the EC50 turn out when `Cc1cc(NC(=O)c2c3c(cn2C)S(=O)(=O)N[C@H]2CN(C(=O)C(=O)NCC(F)(F)F)C[C@H]2CS3)ccc1F` [Example E38, (3aR,10aR)-N-(4-fluoro-3-methylphenyl)-7-methyl-2-(2-oxo-2-((2,2,2-trifluoroethyl)amino)acetyl)-2,3,3a,4,10,10a-hexahydro-1H,7H-dipyrrolo[3,4-c:3',4'-g][1,6,2]dithiazocine-8-carboxamide 5,5-dioxide] was run?
Its EC50 is under 500 nM.

For `Cc1cc(NC(=O)c2c3c(cn2C)S(=O)(=O)N[C@H]2CN(C(=O)C(=O)NCC4CC4)C[C@H]2CS3)ccc1F` [Example E39, (3aR,10aR)-2-(2-((cyclopropylmethyl)amino)-2-oxoacetyl)-N-(4-fluoro-3-methylphenyl)-7-methyl-2,3,3a,4,10,10a-hexahydro-1H,7H-dipyrrolo[3,4-c:3',4'-g][1,6,2]dithiazocine-8-carboxamide 5,5-dioxide], which EC50 is on record?
The EC50 was under 500 nM.

For `Cc1cc(NC(=O)c2c3c(cn2C)S(=O)(=O)N[C@H]2CN(C(=O)C(=O)NC4(C)CC4)C[C@H]2CS3)ccc1F` [Example E40, (3aR,10aR)-N-(4-fluoro-3-methylphenyl)-7-methyl-2-(2-((1-methylcyclopropyl)amino)-2-oxoacetyl)-2,3,3a,4,10,10a-hexahydro-1H,7H-dipyrrolo[3,4-c:3',4'-g][1,6,2]dithiazocine-8-carboxamide 5,5-dioxide], which EC50 is on record?
The EC50 was under 500 nM.

With `Cc1cc(NC(=O)c2c3c(cn2C)S(=O)(=O)N[C@H]2CN(C(=O)C(=O)NC4CC(F)(F)C4)C[C@H]2CS3)ccc1F` [Example E41, (3aR,10aR)-2-(2-((3,3-difluorocyclobutyl)amino)-2-oxoacetyl)-N-(4-fluoro-3-methylphenyl)-7-methyl-2,3,3a,4,10,10a-hexahydro-1H,7H-dipyrrolo[3,4-c:3',4'-g][1,6,2]dithiazocine-8-carboxamide 5,5-dioxide] as the molecule, how does the EC50 read?
Its EC50 is under 500 nM.

Which EC50 does the source give for `Cc1cc(NC(=O)c2c3c(cn2C)S(=O)(=O)N[C@H]2CN(C(=O)C(=O)NC4(C)COC4)C[C@H]2CS3)ccc1F` [Example E42, (3aR,10aR)-N-(4-fluoro-3-methylphenyl)-7-methyl-2-(2-((3-methyloxetan-3-yl)amino)-2-oxoacetyl)-2,3,3a,4,10,10a-hexahydro-1H,7H-dipyrrolo[3,4-c:3',4'-g][1,6,2]dithiazocine-8-carboxamide 5,5-dioxide] here?
The EC50 was under 500 nM.
